According to patent US7854946B1, “Anti-inflammatory and anti-HIV compositions and methods of use” (Iowa State University Research Foundation, Inc., priority 2007, dated 2010):

Assays:
Assay type in all cases: cell-based, mouse
[1] = test system: PGE2 production in LPS-induced macrophages; assay: PGE2 assay in LPS-induced RAW264.7 macrophages; conditions: pure compound in cell media, 1 μg/ml LPS, 8 hours
Method: RAW264.7 macrophages were purchased from the American Type Culture Collections (ATCC; […] Cells were plated at a density of 1.0×10^5 cells/well in 24-well cell culture plates and allowed to attach overnight. […] Louis, Mo.) and solvent alone, dimethylsulfoxide (DMSO) (Sigma, St. Louis, Mo.), or H. gentianoides extract or fraction simultaneously for 8 hours. Cell supernatants were collected on ice, and stored in a −70° C. freezer for use in the PGE2 assay. […] Four controls were included in each treatment: media alone, media and DMSO, media and LPS, and media and LPS and DMSO. In addition, 10 μM quercetin was used as a positive control. Since H. perforatum contains light-activated compounds, the H. gentianoides extract was tested in both light-activated and dark conditions initially to determine if the activity was dependent on light activation. […] The supernatant samples were assayed with a Prostaglandin E2 EIA kit (GE Biosciences, Piscataway, N.J.) according to manufacturer's instructions. […] Data is shown as mean percent reduction in LPS-induced PGE2 levels±the standard error as compared to the media+LPS+DMSO control. Statistical significance was determined by an F-protected two-way ANOVA followed by a Tukey-Kramer test for multiple comparisons (Snedecor, G. W., Cochran, W. G., Eds. (1989). Statistical Methods, 8th ed. University Press: Ames, Iowa). For cytotoxicity, data are represented as mean % cytotoxicity±standard error as compared to the media+DMSO control. Statistical significance was determined by an F-protected two-way ANOVA followed by a Dunnett-Hsu test for multiple comparisons (Dunnett C. W. (1955). “A multiple comparison procedure for comparing several treatments with a control.” Journal of the American Statistical Association. 50:1096-1121). […] The ability of H. gentianoides extracts to reduce the inflammatory response was assessed by quantifying PGE2 production in LPS-induced macrophages. […]

RAW264.7 macrophages = assay: CellTiter96 cytotoxicity assay in RAW264.7 macrophages
Method: CellTiter96® Aqueous One Solution cell proliferation assay (Promega Corporation, Madison, Wis.) was used as previously described in Schmitt et al. with an 8-hour treatment incubation instead of 24-hour treatment incubation to parallel the anti-inflammatory studies (Schmitt, L. A., et al., (2006)). Following the 8 hour incubation, treatment solutions were removed and fresh media and Celltiter96® dye were added for 3 hours and 15 minutes (Schmitt, L. A., et al., (2006)). The metabolized dye solutions were transferred to 96-well plates for absorbance measurement at 490 nm. The number of viable cells for each treatment was compared to the media+DMSO solvent control. Treatment with 20 μM hypericin was used as a positive control. Data is shown as mean percent reduction in LPS-induced PGE2 levels±the standard error as compared to the media+LPS+DMSO control. Statistical significance was determined by an F-protected two-way ANOVA followed by a Tukey-Kramer test for multiple comparisons (Snedecor, G. W., Cochran, W. G., Eds. (1989). Statistical Methods, 8th ed. University Press: Ames, Iowa). For cytotoxicity, data are represented as mean % cytotoxicity±standard error as compared to the media+DMSO control. Statistical significance was determined by an F-protected two-way ANOVA followed by a Dunnett-Hsu test for multiple comparisons (Dunnett C. W. (1955). “A multiple comparison procedure for comparing several treatments with a control.” Journal of the American Statistical Association. 50:1096-1121).

cyclooxygenase-1 = assay: Western blot of COX-1 protein in LPS-induced RAW 264.7 macrophages; conditions: 8 hour treatment
cyclooxygenase-2 = assay: Western blot of COX-2 protein in LPS-induced RAW 264.7 macrophages; conditions: 8 hour treatment, dose not given
Method: FIG. 9. […] After an 8 hour treatment with lipopolysaccharide (LPS) and H. gentianoides fractions, a protein extraction was performed on the RAW 264.7 macrophages. Separation of the proteins was carried out on a discontinuous (4% stacking, 10% resolving) sodium dodecyl sulfate-polyacrylamide (30% acrylamide/bis solution) (BioRad; Hercules, Calif.) gel, followed by transfer to a PVDF membrane (GE Healthcare; Piscataway, N.J.) at 100V for 2.5 hours. COX-2 rabbit polyclonal antibody (Santa Cruz Biotechnology, Santa Cruz, Calif.) was diluted 1:1000 in 5% milk Tris-buffered saline with 0.5% Tween-20 (TBS-T). The secondary antibody (goat, anti-rabbit IgG, HRP conjugated, Santa Cruz Biotechnology; Santa Cruz, Calif.) was diluted 1:1000 in 5% milk in TBS-T. Detection was visualized on blue sensitive autoradiographic film (Marsh Bioproducts; Rochester, N.Y.) with a chemiluminescence (ECLplus) detection kit (GE Healthcare; Piscataway, N.J.).
After an 8 hour treatment with lipopolysaccharide (LPS) and H. gentianoides fractions, RAW 264.7 cells were rinsed twice with ice cold 1× phosphate buffered saline (PBS). […] The protein concentration in each lysate was determined using the bicinchonic acid and copper sulfate protein assay (Sigma; St. Louis, Mo.). […]

SMILES | lowest tested dose with significant reduction of PGE2 concentrations [1] [µM] | cytotoxicity (RAW264.7 macrophages; dose of 100 μM) | cyclooxygenase-1 protein (cyclooxygenase-1) | doses at which significant cytotoxicity stops (RAW264.7 macrophages; RAW264.7 macrophages, tested 0.5-100 μM) [µM] | cyclooxygenase-2 enzyme (cyclooxygenase-2) | tested dose from which cytotoxicity is significant (RAW264.7 macrophages; RAW264.7 macrophages) [µM]
CC(C)=CCc1c(O)c(CC2=C(O)C(C)=C(O)C(CC=C(C)C)(C(=O)C(C)C)C2=O)c(O)c(C(=O)C(C)C)c1O (centres unmarked) [hyperbrasilol C] | 10 | no significant cytotoxicity |  |  |  | 
Cc1c(O)c(CC2=C(O)C(C)(C)C(=O)C(C(=O)C(C)C)=C2O)c(O)c(C(=O)C(C)C)c1O [saroaspidin A] | 2 |  | does not appear to be affected | ≤ 10 | reduces | 
CC(C)=CCc1c(O)c(CC2=C(O)C(C)(C)C(=O)C(C(=O)C(C)C)=C2O)c(O)c(C(=O)C(C)C)c1O [uliginosin A] | 10 |  |  |  |  | 100
